One data set in a line: Saliva stability study. Format: in vitro ADME. The following applies: pooled human saliva, 37 °C, 1 hour, HPLC, content at 1 hour divided by content at time zero, two aliquots per time point. On the procedure:
Since the oxytocin FDTs are intended to be administered under the tongue, we confirmed the stability of oxytocin in saliva prior to initiation of the pharmacokinetic study. The FDTs were incubated in pooled human saliva maintained at 37 °C for an hour along with unformulated oxytocin as a control. […]
the resting TEER measurement from the final TEER measurement. A reduction in the TEER indicates increased permeability of oral tissue after treatment.
Disintegration testing: Non-sink method
50, 60, 90 seconds) for complete disintegration. […]
aliquoted into four different vials. […]
immediately. […] The other two
HPLC mobile phase liquid and centrifuged immediately. The supernatants were loaded for HPLC analysis at the […]
1-hour divided by the content at time zero.
Test material Route of administration (IU/animal) Dose administered
Formulation 4 Sublingual 600 1 tablet
Formulation 4 Sublingual 400 1 tablet
Control Intramuscular 20 1 mL of 20 IU/mL
The FDTs were administered […]
once on days 1, 3, 8, 15, and 18. […]
aid in dissolution of the tablet. […]
right hind limb (biceps femoris) once on day 22.

The conditions of data set [1]: in vivo.
Protocol: (§1) Next, a crossover pharmacokinetic study with 24-h washout was conducted to determine oxytocin plasma levels after SL administration and to compare with the standard IM route in female mini pigs, chosen due to the similarity in oral cavity architecture with humans. Ten anesthetized female, non-pregnant Yucatan miniature swine, Sus scrofa 3 to 5 months old and weighing 15 to 20 kg were administered an oxytocin FDT under the tongue. For the control, mini pigs received 20 IU of oxytocin in a 1 mL IM injection into the right hind limb. […] Blood was collected from both groups at several time points up to 60 min after administration, via previously implanted vascular access ports, and plasma was obtained for analysis. A commercial enzyme-linked immunosorbent assay kit was used to detect oxytocin in the plasma.
(§2) The pharmacokinetic data were derived from ten non-pregnant female Yucatan miniature swine, Sus scrofa, aged 3
(§3) to 5 months, weighing 15 to 20 kg (Sinclair Bio-Resources, LLC, Auxvasse, MO, USA). Ten experimental pigs
(§4) received a sublingual (SL) tablet with 400 IU of oxytocin, and ten received SL tablets with 600 IU oxytocin. Ten
(§5) control pigs received 20 IU of oxytocin in a 1 mL intramuscular (IM) injection.
(§6) Animals were anesthetized with dexmedetomidine (0.04 mg/kg) mixed with midazolam (0.2 mg/kg), and anesthesia […]
Details of data set [2]: method as in earlier work. To be noted: women, buccal route, levels greater than 1000 IU, induction of labor; ref [10]; cited from earlier work.
A further data set is described as follows: in vivo. The following applies: female, Yucatan miniature swine, pig, im, 20 IU.

What is called Cmax is the maximum level reached in the sampled fluid or tissue.

Protocol for in vivo: as §1, §2, §3, §4, §5, §6

Regarding `CC[C@H](C)[C@@H]1NC(=O)[C@H](Cc2ccc(O)cc2)NC(=O)[C@@H](N)CSSC[C@@H](C(=O)N2CCC[C@H]2C(=O)N[C@@H](CC(C)C)C(=O)NCC(N)=O)NC(=O)[C@H](CC(N)=O)NC(=O)[C@H](CCC(N)=O)NC1=O` [oxytocin], the “Proteolytic degradation of oxytocin in saliva” value in the data set “Saliva stability study” is recorded as “none to minimal proteolytic degradation”. The “Plasma levels of oxytocin in unanesthetized versus anesthetized pigs” value in data set [1] is on record as “significantly higher”. Moreover, in data set [2], the Adverse events entry is recorded as “without any adverse events”. In the data set “in vivo”, the concentration peaked (Cmax) at 0.612 ng/mL.

These data come from paper PMC5937893, “Heat-stable sublingual oxytocin tablets as a potential needle-free approach for preventing postpartum hemorrhage in low-resource settings” (Drug Delivery and Translational Research, 2018).
